Experimental data reported in US20220305093A1, “NK-LYSIN PEPTIDE COMPOSITIONS AND METHODS FOR THEIR USE AS ANTIMICROBIAL/ANTIVIRAL AGENTS” (priority 2021, published 2022).
Values after ≈ are worked out from the molar mass of the structure shown. Residues, ends and D or L forms follow the SMILES beside them.

Key:
[1] = test system: S. typhimurium (ATCC 14028); format: cell-based, Salmonella typhimurium; settings: ATCC 14028
Experimental: Screening of NK-lysin peptides was carried out against gram-negative S. typhimurium (ATCC 14028) bacteria. Overnight cultivation of the bacteria was carried out at a temperature of 3TC. A bacterial suspension was created in 10 mM sodium phosphate buffer pH 7.0 having a density of (2×10^6 CFU ml^−1) and plated on Muller-Hinton (MH) agar plates to inoculate. After the plates were dry, antibiotics discs of various concentrations (0 to 150 μg/ml) of antibiotic or NK-lysin peptides were applied to the surface of the inoculated plates. The plates were cultured overnight at 3TC and observed for restriction of growth by determining the diameter of bacterial-free zones surrounding each disc. Ceftazidime antibiotic was employed as a positive control.

[2] = test system: gram-positive and gram-negative bacteria; assay: organism not typed; settings: in vitro, some bacterial strains
Text: The gram-positive bacterial strains utilized were Streptococcus pyogenes (ATCC 19615) and Streptococcus mutans (isolate obtained from a patient at King Abdul-Aziz hospital). The gram-negative bacterial strains used included Salmonella typhimurium (ATCC 14028), Escherichia coli (ATCC 11775), Pseudomonas aeruginosa (ATCC 9027), Klebsiella oxytoca (ATCC 49131), Shigella sonnei (ATCC 25931), and Klebsiella pneumoniae (patient isolate). Tryptic soy broth (TSB) was used to grow all bacterial strain overnight, after which the bacteria were washed using phosphate-buffered saline (PBS, NaCl 8 g/L, KCl 0.2 g/L, Na2HPO4 1.4 g/L, KH2PO4 0.24 g/L), and then diluted in the same buffer with 1/1000 TSB to an OD600 nm of 0.08-0.1 (1×10^8) colony-forming units (CFU)/ml, which was determined after performing retrospective plate counts on tryptic soy agar. Unless otherwise noted, the experiments in the following examples employed this inoculum preparation apart from when minimum inhibitory and bactericidal concentrations were determined, which employed cells in Muller Hinton broth. […]
Mueller Hinton broth (MHB) comprising 0.01% v/v acetic acid (Sigma Aldrich; St Louis, Mo.) and 0.2% w/v bovine serum albumin (Sigma Aldrich). […] The treated plates were incubated at […] and optical densities were determined for each well at 0 minutes, 1, 2 and 3 hours and after an overnight incubation. […]

[3] = test system: Rotavirus (strain SA-11); format: cell-based
Experimental: Rotavirus (strain SA-11) was activated with 10 μg/mL trypsin before propagation on MA-104 cells derived from kidney cells of African […] monkey. MA-104 cells were cultivated in tissue culture flasks in the presence of less than 5% CO2 at 37° C. in Dulbecco's Minimal Essential Medium (DMEM) (Sigma-Aldrich) The DMEM included 1% antibiotic antimycotic solution and 10% heat inactivated fetal bovine serum (A5955, Sigma-Aldrich). Centrifugation of rotavirus was performed at 300×g for 5 mins in order to purify by removal of cell debris. The supernatant was utilized as a stock suspension of virus after filtration through 0.2 μm membrane. The stock virus contained 10^6-10^7 TCID50 per mL and was stored at −80° C. for future use.
In order to activate infectivity, rotavirus was placed in a solution of 10 μg/mL trypsin at 37° C. for 30 min. A 100 μl aliquot of the activated rotavirus sa-11 was mixed with and equal volume of 80 μg/ml NK-lysin peptides for a final rotavirus concentration of 1×10^6 TCID50/ml. The rotavirus and NK-lysin peptide mixture was first incubated for at 37° C. for 1 hour. Serial dilutions of rotavirus and rotavirus+peptide mixtures were prepared. Aliquots 100 μl of the 10-fold serial dilutions were then added to 96-well tissue culture plates comprising monolayers of MA-104 cells at a density of approximately 5.0×10^4 cells per well. Eight wells were used for each sample to make sure sufficient assay precision was achieved. The microplates were incubated for 5 days at 37° C. under 5% CO2 atmosphere. During the 5-day incubation, cells were monitored daily under a microscope to check for a cytopathic effect (CPE). A tissue culture infectious dose (TCID) was the infectious dose/mL of tissue culture equal to 50 percent of wells showing CPE at a specific dilution and was expressed as the TCID50 for that dilution. The highest dilutions in which 50% or higher wells were read as the TCID50.

[4] = test system: Salmonella typhimurium (ATCC 14028); assay: Growth kinetic activity at 2×MIC; format: cell-based
Experimental: (§1) The kinetic killing abilities of NK-lysin peptides were gauged in accordance with the Clinical Laboratory and Standard Institute (CLSI) broth micro-dilution technique presented by Wiegand and Hancock (2008). Mueller Hinton broth comprising 0.01% v/v acetic acid was prepared with 0.2% w/v bovine serum albumin, as above. […] The plate was then incubated at room temperature. […] A distinct triplicate was used to repeat the kinetic potential of NK-lysin peptides thrice.

[5] = test system: Streptococcus mutans (isolate); assay: Growth kinetic activity at 2×MIC; format: cell-based; settings: time dependent, FIG. 3B
Experimental: as §1

[6] = test system: Salmonella typhimurium (ATCC 14028); assay: microbe, parasite or virus in culture; settings: S.typhimrium ATCC 14028
Experimental: (§2) The minimum inhibitory concentration (MIC) is defined as the lowest concentration of an antimicrobial ingredient or agent that is bacteriostatic (prevents the visible growth of bacteria).
(§3) Mueller Hinton broth (MHB) comprising 0.01% v/v acetic acid (Sigma Aldrich; St Louis, Mo.) and 0.2% w/v bovine serum albumin (Sigma Aldrich). Equal concentrations of bacteria were plated in wells of standard tissue culture microplates at a density of 0.5×10^8 CFU ml^−1 in MHB per well. Treatments were equivalent volumes (50 μl) of NK-lysin peptides in concentrations of 0 to 150 μg/ml, or no NK-lysin peptides for control wells. The treated plates were incubated at […] and optical densities were determined for each well at 0 minutes, 1, 2 and 3 hours and after an overnight incubation.

[7] = test system: Klebsiella oxytoca (ATCC 49131); assay: microbe, parasite or virus in culture; settings: ATCC 49131
Experimental: as §2, §3

[8] = test system: Klebsiella pneumoniae (patient isolate); assay: microbe, parasite or virus in culture; settings: patient isolate
Experimental: as §2, §3

[9] = test system: Streptococcus mutans (isolate); assay: microbe, parasite or virus in culture; settings: isolate
Experimental: as §2, §3

[10] = test system: Shigella sonnei (ATCC 25931); assay: microbe, parasite or virus in culture; settings: Sh. sonnei ATCC 25931
Experimental: as §2, §3

[11] = test system: Pseudomonas aeruginosa (ATCC 9027); assay: microbe, parasite or virus in culture; settings: ATCC 9027
Experimental: as §2, §3

[12] = test system: Streptococcus pyogenes (ATCC 19615); assay: microbe, parasite or virus in culture; settings: ATCC 19615
Experimental: as §2, §3

[13] = test system: Escherichia coli (ATCC 11775); assay: microbe, parasite or virus in culture; settings: ATCC 11775
Experimental: as §2, §3

[14] = test system: Salmonella typhimurium (ATCC 14028); assay: Leakage of intracellular contents (DNA/RNA release, OD 260 nm); format: cell-based; settings: 15 min
Experimental: The protocol of Carson et al. (Antimicrob Agents Chemother. 2002 June; 46(60:1914-20) was used with some changes to perform the assay for determining the loss of DNA/RNA. In short, 50 μl of bacteria was combined with the same volume of NK-lysin peptides at 2×MIC and then incubated at room temperature. Samples were harvested at 15, 30 and 60 minutes, diluted 1:10 and then filtered across 0.22 μm pores (Merck; Tullagreen, Ireland). The measurement of the O.D 260 nm of the filtrates was carried out over NanoDrop plate (Greiner Bio-One GmbH; Frickenhausen, Germany). The results were presented as a ratio to the original OD260 nm. 16S rRNA Amplification Two universal primer sets 341F and 534 R were used to amplify 500 bp of 16s rRNA gene of Salmonella typhimurium. The forward primer had the following sequence: 5′-CCT ACG GGA GGC AGC AG-3′ (SEQ ID NO:04), whereas the reverse primer had the following: 5′-ATT ACC GCG GCT GCT GGC-3′ (SEQ ID NO:05). PCR amplification reactions were carried out in 50 μl of overall volume with a reaction mixture comprising 50 ng template DNA, 10 pmol each primer, 0.25 U Taq DNA polymerase, 10 mM Tris-HCl (pH.9.0), […] dNTPs mix, 30 mM KCl, 1.5 mM MgCl2 in sterile nuclease-free water. […]

[15] = test system: S. typhimurium (ATCC 14028); assay: Colony count assays; format: cell-based, Salmonella typhimurium; settings: 30 μg/ml
Experimental: Antimicrobial activity of NK-lysin peptides was assayed in cultures of S. typhimurium (ATCC 14028). The bacteria were maintained in tryptic soy broth at 3TC and were grown to the mid-logarithmic phase prior to testing. To determine the activity of NK-lysin peptides, colony count assays were carried out. Bacteria were pelleted and then re-suspended in a 10 mM sodium phosphate buffer pH 7.0 and then diluted to a density of (2×10^6 CFU ml^−1 in MHB. 50 μl of NK-lysin peptide were combined with an equal volume of bacterial culture and incubated at room temperature for 3 hours. A 1 μl sample of each culture was then diluted by 1000 (in 1 ml) and spread over MH agar plates. Colonies were counted after 24 hours at room temperature to determine the bacteria that survived.

[16] = 80 μg/ml peptide, Rotavirus (SA-11)

Compound: CC[C@H](C)[C@H](NC(=O)[C@H](C)NC(=O)[C@H](CC(=O)O)NC(=O)[C@H](CCC(=O)O)NC(=O)[C@H](CC(=O)O)NC(=O)[C@@H]1CCCN1)C(=O)N[C@@H](CC(N)=O)C(=O)N[C@@H](CC(N)=O)C(=O)N[C@@H](C)C(=O)N[C@@H](CC(C)C)C(=O)N[C@@H](CC(N)=O)C(=O)N[C@@H](CCCCN)C(=O)N[C@H](C(=O)N[C@@H](CS)C(=O)N[C@@H](CO)C(=O)N[C@H](C(=O)NCC(=O)N[C@@H](CCCNC(=N)N)C(=O)N[C@@H](CCCNC(=N)N)C(=O)N[C@@H](CCC(N)=O)C(=O)N[C@@H](CCCNC(=N)N)C(=O)N[C@@H](CO)C(=O)N[C@H](C(=O)N[C@@H](CS)C(=O)N[C@@H](CCCCN)C(=O)N[C@@H](CCC(N)=O)C(=O)N[C@@H](CC(C)C)C(=O)N[C@@H](CC(C)C)C(=O)N[C@@H](CCCCN)C(=O)N[C@@H](CCCCN)C(=O)O)[C@@H](C)CC)[C@@H](C)O)C(C)C [Chicken NK-lysin] (H-PDEDAINNALNKVCSTGRRQRSICKQLLKK-OH; N-terminus and C-terminus assumed)
- clear zone diameter [1]: 23 mm
- time to nearly complete killing [2]: ≤ 3 h
- Log10TCID50/ml [3, 16]: 5.61
- TCID50/ml [3, 16]: 4.11 × 10^5 TCID50/ml
- % reduction ([3]; 80 μg/ml peptide, versus initial titre): 79%
- inhibition of infection / infectivity ([3]; Rotavirus (strain SA-11)): 80%
- growth inhibition ([4]; 2×MIC, after 4 hr of incubation): Complete inhibition
- lethality ([4]; 1 hr after treatment): high lethality
- kinetic activity compared between peptides [5]: more potent activity than bovine or human NK-lysin peptides
- MBC [6]: 30 ± 0.10 µg/mL (≈ 8.82 µM)
- MIC [6]: 15 ± 0.098 µg/mL (≈ 4.41 µM)
- MBC [7]: 25 ± 0.10 µg/mL (≈ 7.35 µM)
- MIC [7]: 15 ± 0.015 µg/mL (≈ 4.41 µM)
- MBC [8]: 25 ± 0.010 µg/mL (≈ 7.35 µM)
- MIC [8]: 15 ± 0.030 µg/mL (≈ 4.41 µM)
- MBC [9]: 15 ± 0.00 µg/mL (≈ 4.41 µM)
- MIC [9]: 15 ± 0.00 µg/mL (≈ 4.41 µM)
- MIC [10]: 15 ± 0.033 µg/mL (≈ 4.41 µM)
- MBC [11]: 25 ± 0.013 µg/mL (≈ 7.35 µM)
- MIC [11]: 15 ± 0.012 µg/mL (≈ 4.41 µM)
- MBC [12]: 25 ± 0.010 µg/mL (≈ 7.35 µM)
- MIC [12]: 15 ± 0.00 µg/mL (≈ 4.41 µM)
- MBC [13]: 25 ± 0.010 µg/mL (≈ 7.35 µM)
- MIC [13]: 15 ± 0.012 µg/mL (≈ 4.41 µM)
- release of DNA/RNA (OD 260 nm), words [14]: higher activity
- decrease of colony number [15]: approximately 10 fold
